Results taken from patent US8921373B2, “Compounds having TRPV1 antagonistic activity and uses thereof” (Shionogi & Co., Ltd., priority 2010, dated 2014).

target: human recombinant TRPV1 (Homo sapiens (Human), UniProt Q8NER1); assay: TRPV1 pH-Based Assay (Protocol 2, Ca2+ response in TRPV1/CHO cells, Fura-2); assay type: cell-based; settings: not given
Method: For Protocol 2, a Chinese Hamster Ovary cell line (CHO) that has been engineered to constitutively express human recombinant TRPV1 was used (TRPV1/CHO cells). The TRPV1/CHO cell line was generated as described below.
TRPV1/CHO cells were seeded in the 96-well clear-bottom black-wall plate (Nunc) at densities of 1-2×10^4 cells/well and grown in 100 μL of culture medium (alpha-MEM supplemented with 10% FBS, 20 mM HEPES, 1 mg/mL geneticin and 1% antibiotic-antimycotic mixed stock solution) for 1-2 days before the experiment.
(2) The 96-well plate was incubated at 37° C. for 45 min.
(3) The loading buffer was removed from each well. […] The wells were then refilled with 80 μL of measuring buffer.
(4) After an incubation at 4° C. for 15 min, the 96-well plate was transferred to FDSS-3000 (Hamamatsu Photonics, Japan).
(5) The Fura-2 fluorescent intensity was monitored at a wavelength of 340 nm and at 380 nm, respectively, at a rate of 0.5 Hz for a total of 240 seconds. After 16 time points (32 sec) of baseline detection, 20 μL of agonist solution was added to each well. The final volume was 100 μL/well.
(6) Fluorescence intensity ratio refers to the fluorescence intensity at 340 nm over the fluorescence intensity at 380 nm at a particular time point. The baseline was set as the average of the fluorescent intensity ratios for the first 16 time points before the addition of agonist solution. The maximum response was the highest fluorescent intensity ratio during the 60 time points following addition of agonist solution.
(7) Maximal signal ratios from each well were calculated as output data using the FDSS-3000 analysis program. Data were analyzed using Excel (Microsoft) and XLfit (idbs) software.
Two different agonist solutions with different H2SO4 concentrations were used for the pH assay (FIG. 3A). For one half of a 96-well plate one agonist solution was used, for the other half the other agonist solution. The agonist solutions were obtained by diluting sulfuric acid (H2SO4, 1M) with measuring buffer. The concentrations for the two agonist solutions were determined as described above in Section 2 of Protocol 2.
The sulfuric acid concentrations between the two agonist solutions differed by 0.5 mM. […] After 1:4 dilution of the agonist solutions, the final sulfuric acid concentration was 3.2 mM and 3.3 mM, respectively. The resulting pH value for the pH assay was 5.0 to 5.1.
Test compounds were dissolved in DMSO to yield 1 mM stock solutions. […] The thereby-obtained solutions were further diluted in measuring buffer (1:100) as 10× stock serial dilutions with a DMSO concentration of 1%. 10 μL of a 10× stock was added into each well at step 3.3.(4) of Protocol 2.
Steps (1) and (2) of this Assay were the same as steps 2.2.(1) and 2.2.(2) of Protocol 2, respectively.
(3) The cells were washed twice with 150 μL of measuring buffer (mentioned in 2.2.(3) of Protocol 2, no probenecid). The wells were subsequently refilled with 70 μL of measuring buffer.
(4) Either 10 μl of measuring buffer or 10 μL of 10× stock serial dilution of test compound (described in 3.2. above) were applied to each well. Usually, only one test compound was tested per 96-well plate. The number of replicates per 96-well plate for a particular antagonist at a particular concentration was 7×2 since two different sulfuric acid concentrations were used per 96-well plate (N=7×2) (FIG. 3).
Step (5) was the same as 2.2.(4) above.
(6) Fura-2 fluorescent intensity was monitored as described in 2.2.(5) above. After 16 time points of baseline detection, 20 μL of agonist solution (measuring buffer titrated with H2SO4 to yield pH 5.0-5.1 when mixed 1:4 with the measuring buffer containing test compound) was added to each well (final volume 100 μL/well).
Steps (7) and (8) were as described in 2.2.(6) and 2.2.(7) above, respectively.
(1) The pH values of the buffer in the wells of A1→H1 and A7→H7 (longitudinally; FIG. 3) were measured one by one using a portable pH meter.

Sequence of human recombinant TRPV1 (Q8NER1 whole entry): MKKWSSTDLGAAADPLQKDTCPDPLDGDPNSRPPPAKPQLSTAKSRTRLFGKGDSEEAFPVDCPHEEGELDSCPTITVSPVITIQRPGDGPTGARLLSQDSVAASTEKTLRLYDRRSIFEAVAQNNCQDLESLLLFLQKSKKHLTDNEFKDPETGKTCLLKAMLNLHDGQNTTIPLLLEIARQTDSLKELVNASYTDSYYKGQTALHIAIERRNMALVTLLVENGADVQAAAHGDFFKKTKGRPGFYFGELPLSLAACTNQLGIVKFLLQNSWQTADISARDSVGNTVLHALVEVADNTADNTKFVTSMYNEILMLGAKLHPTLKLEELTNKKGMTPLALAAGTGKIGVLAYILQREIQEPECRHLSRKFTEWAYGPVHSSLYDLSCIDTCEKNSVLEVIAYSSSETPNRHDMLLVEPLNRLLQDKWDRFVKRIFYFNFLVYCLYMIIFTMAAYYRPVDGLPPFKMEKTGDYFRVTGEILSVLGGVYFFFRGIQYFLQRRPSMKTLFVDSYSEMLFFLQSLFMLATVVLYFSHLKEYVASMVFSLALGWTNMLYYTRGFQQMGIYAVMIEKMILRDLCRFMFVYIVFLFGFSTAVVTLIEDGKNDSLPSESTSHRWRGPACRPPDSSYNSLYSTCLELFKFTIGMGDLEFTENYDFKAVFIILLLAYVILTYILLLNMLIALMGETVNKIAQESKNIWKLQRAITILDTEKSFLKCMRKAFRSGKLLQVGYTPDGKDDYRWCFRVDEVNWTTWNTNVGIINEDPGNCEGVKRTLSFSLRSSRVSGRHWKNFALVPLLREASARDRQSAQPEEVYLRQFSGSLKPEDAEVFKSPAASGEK

IC50 [nM]	SMILES
≤ 50	O=C(Nc1nc2cc(F)c(F)cc2s1)N1CCN(c2ncc(C[C@@H](O)CO)cc2F)CC1 [AFA]

same assay, conditions: TRPV1/CHO cells, pH 5.0-5.1; comparative compounds without the substituted alkyl group; read-out: TRPV1 IC50 Potency (pH-Based Assay), Comparative compound IC50

IC50 [nM]	SMILES
24	C[C@@H]1CN(c2ncccc2Cl)CCN1C(=O)Nc1nc2ccc(F)cc2s1 [reference compound]
77	O=C(Nc1ccc(C(F)(F)F)c(Cl)c1)N1CC=C(c2ncccc2Cl)CC1 [drawing 493, reference compound]

same assay, conditions: TRPV1/CHO cells, pH 5.0-5.1; compounds of the invention; read-out: TRPV1 IC50 Potency (pH-Based Assay), Compound IC50

IC50 [nM]	SMILES
1	CO[C@@H]1CN(c2ncc(C[C@@H](O)CO)cc2Cl)CCN1C(=O)Nc1nc2ccc(F)cc2s1
46	O=C(Nc1ccc(OC(F)(F)F)cn1)N1CC=C(c2ncc(C(F)(F)[C@@H](O)CO)cc2Cl)CC1
12	O=C(Nc1ccc(C(F)(F)F)cc1)N1CC=C(c2ncc(CC(O)CO)cc2Cl)CC1 (stereo not shown)
5	O=C(Nc1nc2ccc(F)cc2s1)N1CC=C(c2ncc(CC(O)CO)cc2Cl)CC1 (stereo not shown)
143	O=C(Nc1ccc(C(F)(F)F)cn1)N1CCC(F)(c2ncc([C@H](O)[C@H](O)CO)cc2Cl)CC1
171	O=C(Nc1nc2ccc(C(F)(F)F)cc2s1)N1CCC(F)(c2ncc([C@H](O)[C@H](O)CO)cc2Cl)CC1

same assay, conditions: TRPV1/CHO cells, pH 5.0-5.1; read-out: IC50 value by the pH-Based Assay

IC50 [nM]	SMILES
≤ 50	O=C(Nc1ccc(C(F)(F)F)cn1)N1CC=C(c2ncc(C[C@@H](O)CO)cc2Cl)CC1 [AAJ, (R)-4-(3-Chloro-5-(2,3-dihydroxypropyl)pyridin-2-yl)-N-(5-(trifluoromethyl)pyridin-2-yl)-5,6-dihydropyridine-1(2H)-carboxamide]
≤ 50	O=C(Nc1nc2ccc(F)cc2s1)N1CC=C(c2ncc(C[C@@H](O)CO)cc2Cl)CC1 [AAL, (R)-4-(3-Chloro-5-(2,3-dihydroxypropyl)pyridin-2-yl)-N-(6-fluorobenzo[d]thiazol-2-yl)-5,6-dihydropyridine-1(2H)-carboxamide]
≤ 50	Cc1ccc2nc(NC(=O)N3CCN(c4ncc(C[C@@H](O)CO)cc4F)[C@@H](C)C3)sc2c1 [AFO, (S)-4-(5-((R)-2,3-dihydroxypropyl)-3-fluoropyridin-2-yl)-3-methyl-N-(6-methylbenzo[d]thiazol-2-yl)piperazine-1-carboxamide]
≤ 50	C[C@H]1CN(c2ncc(C[C@H](O)CO)cc2F)CCN1C(=O)Nc1nc2ccc(F)cc2s1 [AEL]
≤ 50	O=C(Nc1ccc(C(F)(F)F)c(Cl)c1)N1CC=C(c2ncc(C[C@@H](O)CO)cc2F)CC1 [AAY, (R)-N-(3-chloro-4-(trifluoromethyl)phenyl)-5-(2,3-dihydroxypropyl)-3-fluoro-5′,6′-dihydro-[2,4′-bipyridine]-1′(2′H)-carboxamide]
≤ 50	O=C(Nc1ccc(C(F)(F)F)c(Cl)c1)N1CC=C(c2ncc(C[C@H](O)CO)cc2F)CC1 [AAZ, (S)-N-(3-chloro-4-(trifluoromethyl)phenyl)-5-(2,3-dihydroxy-propyl)-3-fluoro-5′,6′-dihydro-[2,4′-bipyridine]-1′(2′H)-carboxamide]
≤ 50	O=C(Nc1nc2ccc(F)cc2s1)N1CC=C(c2ncc(C[C@H](O)CO)cc2Cl)CC1 [AAH]
≤ 50	Cc1cc2nc(NC(=O)N3CCN(c4ncc(C[C@H](O)CO)cc4F)C[C@@H]3C)sc2cc1C [AEU]
≤ 50	Cc1cc(NC(=O)N2CC=C(c3ncc(C(F)(F)[C@@H](O)CO)cc3Cl)CC2)ccc1C(F)(F)F [ADC, (S)-4-(3-chloro-5-(1,1-difluoro-2,3-dihydroxypropyl)pyridin-2-yl)-N-(3-methyl-4-(trifluoromethyl)phenyl)-5,6-dihydropyridine-1(2H)-carboxamide]
≤ 50	C[C@H]1CN(c2ncc(C[C@@H](O)CO)cc2C(F)(F)F)CCN1C(=O)Nc1nc2ccccc2s1 [AGV]
≤ 50	C[C@@H]1CN(c2ncc(C[C@H](O)CO)cc2F)CCN1C(=O)Nc1nc2ccccc2s1 [AGX]
≤ 50	Cc1ccc2nc(NC(=O)N3CCN(c4ncc(C[C@H](O)CO)cc4F)[C@@H](C)C3)sc2c1 [AFP, (S)-4-(5-((S)-2,3-dihydroxypropyl)-3-fluoropyridin-2-yl)-3-methyl-N-(6-methylbenzo[d]thiazol-2-yl)piperazine-1-carboxamide]
≤ 50	C[C@H]1CN(c2ncc(C[C@@H](O)CO)cc2F)CCN1C(=O)Nc1nc2ccc(F)cc2s1 [AEJ]
